From ChEMBL document CHEMBL5214923, “Contemporary mTOR inhibitor scaffolds to diseases breakdown: A patent review (2015-2021)” (Eur J Med Chem, 2022)

Assays:
[1] = target: Phosphatidylinositol 4,5-bisphosphate 3-kinase catalytic subunit beta isoform (Homo sapiens, UniProt P42338); experiment: Inhibition of PI3Kbeta (unknown origin) by TR-FRET assay
[2] = target: T1, Phosphatidylinositol 4,5-bisphosphate 3-kinase catalytic subunit alpha isoform (Homo sapiens, UniProt P42336); experiment: Inhibition of PI3Kalpha (unknown origin) by TR-FRET assay
[3] = target: T2, Phosphatidylinositol 4,5-bisphosphate 3-kinase catalytic subunit delta isoform (Homo sapiens, UniProt O00329); experiment: Inhibition of PI3Kdelta (unknown origin) by TR-FRET assay
T2 sequence (O00329 whole entry): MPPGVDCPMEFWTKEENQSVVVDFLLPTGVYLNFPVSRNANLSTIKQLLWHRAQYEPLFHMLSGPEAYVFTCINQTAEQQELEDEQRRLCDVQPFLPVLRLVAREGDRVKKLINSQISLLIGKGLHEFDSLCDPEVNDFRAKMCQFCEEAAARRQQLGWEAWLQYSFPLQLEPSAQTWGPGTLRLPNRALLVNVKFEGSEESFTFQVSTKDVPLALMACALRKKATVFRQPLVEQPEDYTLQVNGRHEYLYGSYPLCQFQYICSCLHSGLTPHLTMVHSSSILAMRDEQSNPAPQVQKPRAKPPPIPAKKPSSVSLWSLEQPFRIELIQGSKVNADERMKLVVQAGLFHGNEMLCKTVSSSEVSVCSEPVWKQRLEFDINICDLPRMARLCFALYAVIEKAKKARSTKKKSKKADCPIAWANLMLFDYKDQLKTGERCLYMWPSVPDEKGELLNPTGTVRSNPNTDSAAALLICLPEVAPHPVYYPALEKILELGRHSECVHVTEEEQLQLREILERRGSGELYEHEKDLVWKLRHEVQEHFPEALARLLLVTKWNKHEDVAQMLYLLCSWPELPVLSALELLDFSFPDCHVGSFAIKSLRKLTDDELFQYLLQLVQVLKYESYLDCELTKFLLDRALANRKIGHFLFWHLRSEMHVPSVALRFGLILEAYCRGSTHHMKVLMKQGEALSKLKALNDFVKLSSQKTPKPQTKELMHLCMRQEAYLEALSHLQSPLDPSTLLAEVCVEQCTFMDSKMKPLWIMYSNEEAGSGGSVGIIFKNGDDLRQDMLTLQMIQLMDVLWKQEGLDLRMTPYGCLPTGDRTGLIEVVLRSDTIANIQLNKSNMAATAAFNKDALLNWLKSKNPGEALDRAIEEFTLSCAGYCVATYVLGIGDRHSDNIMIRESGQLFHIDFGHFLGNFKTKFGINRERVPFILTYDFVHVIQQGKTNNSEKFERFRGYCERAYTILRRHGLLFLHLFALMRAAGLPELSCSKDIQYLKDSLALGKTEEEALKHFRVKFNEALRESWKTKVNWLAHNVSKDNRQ

[4] = target: Phosphatidylinositol 4,5-bisphosphate 3-kinase catalytic subunit gamma isoform (Homo sapiens, UniProt P48736); experiment: Inhibition of PI3Kgamma (unknown origin) by TR-FRET assay
[5] = target: T1, Phosphatidylinositol 4,5-bisphosphate 3-kinase catalytic subunit alpha isoform; experiment: Inhibition of PI3Kalpha (unknown origin)

T1 sequence (P42336 whole entry, canonical isoform): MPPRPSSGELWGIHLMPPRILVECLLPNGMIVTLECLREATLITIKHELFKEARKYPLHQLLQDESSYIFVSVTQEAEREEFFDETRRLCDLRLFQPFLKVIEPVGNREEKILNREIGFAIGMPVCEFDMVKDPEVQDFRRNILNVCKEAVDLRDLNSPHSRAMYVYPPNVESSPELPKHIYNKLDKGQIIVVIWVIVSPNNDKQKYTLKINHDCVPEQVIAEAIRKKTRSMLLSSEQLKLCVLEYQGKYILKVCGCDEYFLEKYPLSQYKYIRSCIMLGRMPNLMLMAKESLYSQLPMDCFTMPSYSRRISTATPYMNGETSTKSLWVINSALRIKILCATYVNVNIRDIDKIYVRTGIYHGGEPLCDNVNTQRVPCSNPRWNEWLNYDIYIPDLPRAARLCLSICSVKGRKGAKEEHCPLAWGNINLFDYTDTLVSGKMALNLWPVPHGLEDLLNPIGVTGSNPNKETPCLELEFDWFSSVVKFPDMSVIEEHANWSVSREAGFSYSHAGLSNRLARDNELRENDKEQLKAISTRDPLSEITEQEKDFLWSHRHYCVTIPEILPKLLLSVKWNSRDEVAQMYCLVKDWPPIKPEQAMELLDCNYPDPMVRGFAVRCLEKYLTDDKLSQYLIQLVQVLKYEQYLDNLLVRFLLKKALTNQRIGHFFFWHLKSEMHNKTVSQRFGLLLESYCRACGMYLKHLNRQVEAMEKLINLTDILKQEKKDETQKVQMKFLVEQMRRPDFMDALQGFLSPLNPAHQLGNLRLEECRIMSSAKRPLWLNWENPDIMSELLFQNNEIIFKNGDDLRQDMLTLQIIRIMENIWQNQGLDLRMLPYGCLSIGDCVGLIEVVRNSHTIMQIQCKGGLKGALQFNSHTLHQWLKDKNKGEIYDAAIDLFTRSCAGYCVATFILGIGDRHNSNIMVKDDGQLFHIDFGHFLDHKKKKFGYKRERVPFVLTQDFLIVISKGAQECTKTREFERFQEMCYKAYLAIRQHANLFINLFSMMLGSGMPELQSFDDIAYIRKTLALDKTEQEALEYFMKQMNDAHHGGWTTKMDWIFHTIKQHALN
Phosphatidylinositol 4,5-bisphosphate 3-kinase catalytic subunit beta isoform, sequence (P42338 whole entry, canonical isoform): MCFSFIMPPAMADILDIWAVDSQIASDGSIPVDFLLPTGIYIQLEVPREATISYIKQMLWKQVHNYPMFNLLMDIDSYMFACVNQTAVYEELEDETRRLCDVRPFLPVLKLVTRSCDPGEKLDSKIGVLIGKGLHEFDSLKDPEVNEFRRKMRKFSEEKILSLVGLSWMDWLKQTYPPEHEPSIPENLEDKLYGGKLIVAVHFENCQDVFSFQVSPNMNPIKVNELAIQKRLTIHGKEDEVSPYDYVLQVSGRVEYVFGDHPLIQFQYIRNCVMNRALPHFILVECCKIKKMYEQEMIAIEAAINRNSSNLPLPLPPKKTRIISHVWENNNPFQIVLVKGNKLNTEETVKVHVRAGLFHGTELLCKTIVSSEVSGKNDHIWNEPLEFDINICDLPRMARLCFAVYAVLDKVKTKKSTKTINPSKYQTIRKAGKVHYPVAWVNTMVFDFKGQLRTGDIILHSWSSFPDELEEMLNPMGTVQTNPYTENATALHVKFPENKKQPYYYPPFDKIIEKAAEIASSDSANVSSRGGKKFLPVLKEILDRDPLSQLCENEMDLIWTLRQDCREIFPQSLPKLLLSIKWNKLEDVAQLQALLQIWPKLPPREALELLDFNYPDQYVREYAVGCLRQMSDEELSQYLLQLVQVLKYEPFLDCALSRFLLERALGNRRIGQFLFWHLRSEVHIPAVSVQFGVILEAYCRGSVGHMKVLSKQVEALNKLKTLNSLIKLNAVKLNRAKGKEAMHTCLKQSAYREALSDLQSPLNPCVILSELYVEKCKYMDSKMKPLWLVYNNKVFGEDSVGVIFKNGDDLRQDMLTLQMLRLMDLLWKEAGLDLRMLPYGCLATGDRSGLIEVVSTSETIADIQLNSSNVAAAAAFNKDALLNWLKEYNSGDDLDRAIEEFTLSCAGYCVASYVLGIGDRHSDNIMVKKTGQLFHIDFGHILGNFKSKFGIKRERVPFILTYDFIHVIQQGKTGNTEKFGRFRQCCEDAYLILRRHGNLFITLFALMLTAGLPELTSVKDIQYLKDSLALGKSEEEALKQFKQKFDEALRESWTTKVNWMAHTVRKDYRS
Phosphatidylinositol 4,5-bisphosphate 3-kinase catalytic subunit gamma isoform, sequence (P48736 whole entry, canonical isoform): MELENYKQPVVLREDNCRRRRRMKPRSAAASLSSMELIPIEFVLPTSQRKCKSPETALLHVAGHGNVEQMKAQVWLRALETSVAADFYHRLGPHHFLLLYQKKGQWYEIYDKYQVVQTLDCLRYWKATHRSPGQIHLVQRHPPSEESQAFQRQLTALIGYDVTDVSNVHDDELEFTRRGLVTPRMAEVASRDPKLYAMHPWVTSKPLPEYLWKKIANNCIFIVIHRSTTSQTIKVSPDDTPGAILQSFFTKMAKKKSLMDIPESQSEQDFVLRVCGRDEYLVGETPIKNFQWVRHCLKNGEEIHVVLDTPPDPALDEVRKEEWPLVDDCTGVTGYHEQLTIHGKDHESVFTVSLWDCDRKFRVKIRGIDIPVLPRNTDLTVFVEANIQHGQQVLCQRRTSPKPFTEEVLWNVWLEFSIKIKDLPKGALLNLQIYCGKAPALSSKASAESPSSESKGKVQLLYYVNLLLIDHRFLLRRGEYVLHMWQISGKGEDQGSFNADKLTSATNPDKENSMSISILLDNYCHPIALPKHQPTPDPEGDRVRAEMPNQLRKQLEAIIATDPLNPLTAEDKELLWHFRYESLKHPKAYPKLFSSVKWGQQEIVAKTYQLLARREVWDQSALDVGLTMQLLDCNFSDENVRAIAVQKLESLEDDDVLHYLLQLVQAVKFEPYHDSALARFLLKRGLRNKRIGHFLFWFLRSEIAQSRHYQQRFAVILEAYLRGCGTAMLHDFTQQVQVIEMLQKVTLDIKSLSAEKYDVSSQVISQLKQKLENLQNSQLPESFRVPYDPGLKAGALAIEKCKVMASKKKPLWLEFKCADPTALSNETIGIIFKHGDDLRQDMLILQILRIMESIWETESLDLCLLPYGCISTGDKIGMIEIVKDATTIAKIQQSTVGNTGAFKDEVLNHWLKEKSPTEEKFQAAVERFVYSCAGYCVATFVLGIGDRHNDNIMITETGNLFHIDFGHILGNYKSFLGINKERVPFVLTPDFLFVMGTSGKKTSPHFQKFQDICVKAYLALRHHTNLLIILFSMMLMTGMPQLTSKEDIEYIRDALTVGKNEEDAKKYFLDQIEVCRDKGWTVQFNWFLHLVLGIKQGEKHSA

IC50 [1] [nM] | IC50 [2] [nM] | IC50 [3] [nM] | IC50 [4] [nM] | IC50 [5] [nM] | Structure (SMILES)
30.2 | < 4.95 | < 0.495 | 1.33 | – | NOCCOCCOCCOCCC(=O)N1CCN(c2cnc3ccc(-c4cnc(Cl)c(NS(=O)(=O)c5ccc(F)cc5)c4)cc3n2)CC1
– | – | – | – | > 30000 | CC(C)(O)c1ccc(-c2cnc3c(n2)N(CC2CCOCC2)CC(=O)N3)cn1
